Measurements from article PMC8068288, “Novel Thiol Containing Hybrid Antioxidant-Nitric Oxide Donor Small Molecules for Treatment of Glaucoma” (Antioxidants, 2021).
Like-named read-outs stand apart in the source and are kept apart here.

Tests used:
[1] = Ocular biodistribution after SA-9 and SA-9 NPs eye drop; format: in vivo; settings: topical, 30 µL of 2% SA-9 solution, mouse, 1 h after single eye drop of 2% SA-9 solution
NTM-5 cells [2] = experiment: Superoxide scavenging ratio in NTM-5 cell supernatant (pyrogallol assay), with or without TBHP; format: cell-based, human; settings: for AUC0-3h of superoxide scavenging ratio: NTM-5 cell supernatant, 18 h treatment, 0.1-1000 µM
Description: The ROS scavenging ratio was determined using a chemical assay where WST-1 was used as superoxide scavenger produced by pyrogallol following a reported protocol. Briefly, the superoxide anion radical scavenging activity was determined spectrophotometrically by measuring the formation of WST-1 formazan at 450 nm. WST-1 (40 µL, 50 µM) was added to the compounds (or corresponding solution) in a final volume of 160 µL in 50 mM ammonium hydrogen carbonate buffer, 0.5 mM EDTA, pH 9.3. Reaction was launched by adding 40 µL 1 mM pyrogallol. The operation was based on the 96-well microplate, and measurement was performed at different time points under 37 °C by Cytation5 Microplate Reader. Baicalein (1 mM) was used as positive control. Compounds SA-2, SA-9, and SA-10 were used in concentrations ranging from 1 µM, 10 µM, 100 µM, and 1000 µM. The superoxide anion radical scavenging ratio % was calculated according to the following formula:Scavenging ratio (%) = A0 − (A1 − A2)/A0 × 100% […]
(§1) The experiments were repeated twice with four technical replicates.
Figure 2 Superoxide scavenging ability of SA compounds in buffer and cells. (a) The % of superoxide scavenging response from 1 mM concentration of SA-2, SA-9, and SA-10 in pyrogallol (Pyr, 1 mM) induced superoxide induction assay at different time points in buffer. The AUC0–2.5 h for SA-2, SA-9, and SA-10 were 1592 ± 37.87, 1355 ± 42.62, and 2350 ± 69.26, respectively. (b) Comparison of the % ROS scavenging activity of SA-2, SA-9, and SA-10 with control after 15 min of treatment of pyrogallol. (c) The superoxide scavenging ratio (%) after 18 h treatment of 10 µM concentration of SA-2, SA-9, and SA-10 to NTM-5 cell supernatant using pyrogallol induced superoxide induction assay at different time points. (d) The superoxide scavenging ratio (%) of 10 µM concentration of SA-2, SA-9, and SA-10 in NTM-5 cell supernatant. The cells were previously treated with 5.5 mM of TBHP for 30 min followed by SA compounds and incubated for 18 h. Control is untreated cells. Three technical replicates were used for each experiment and all experiments were repeated 2 times. * p < 0.05, ** p < 0.005, *** p < 0.001, **** p < 0.0001, One-way ANOVA for (b), and two-way ANOVA for (c,d).
Figure S1: Superoxide scavenging ability of SA compounds in buffer and cells. a) The % of superoxide scavenging response from different concentrations of SA-2, SA-9 and SA-10 in pyrogallol (1 µM, 10 µM, 100 µM and 1,000 µM) induced superoxide induction assay at 15 minutes time point in buffer solution. The […]
superoxide scavenging ratio (%) after 18h treatment of different concentrations (0.1 µM, 1 µM, 10 µM, 100 µM and 1,000 µM) of SA-2, SA-9 and SA-10 to NTM-5 cell supernatant with or without TBHP (5.5 mM) using pyrogallol induced superoxide induction assay at 3h time point. Control is untreated cells. The cells were previously treated with 5.5 mM of TBHP for 30 minutes followed by SA compounds and TBHP and incubated for 18h. Control is untreated cells. e) The AUC0-3h for SA-2, SA-9 and SA-10 were 18902 ± 2714, […]
for each experiment and all experiments were repeated 2 times. N = 3.
(1 picture or pasted object on this page, not shown here)

[3] = Total nitrite/NO release by Griess assay in buffer (aqueous stability); format: physicochemical; settings: even after 3 days
Description: The total nitrite released from the compounds in buffer and in cell supernatant were measured by Griess assay as reported by us previously. In brief, compounds (SA-2, SA-9, and SA-10) in buffer at different concentrations (1 mM, 500 µM, 250 µM 125 µM, 62.5 µM, 31.25 µM, and 15.625 µM) or supernatant collected from Human transformed trabecular meshwork (NTM-5) cells were added to a 96-well plate. 1% Sulphanilamide in 5% phosphoric acid and 0.1% N-1-napthylethylenediamine dihydrochloride (NED) were added to experimental samples sequentially at room temperature and away from light. SIN-1 was used as reference standard. […]

NTM-5 cells [4] = experiment: In vitro cytoprotection assay against TBHP (MTT); format: cell-based; settings: Homo sapiens, TBHP 350 µM, read-out: EC50 of increase in cell viability (cytoprotection)
Description: After 24 h of treatment, cell proliferation was measured using MTT assay. All the experiments are done in duplicate with four experimental replicates.

NTM-5 cells [5] = experiment: Total nitrite release by Griess assay in NTM-5 cell supernatant; format: cell-based, human
Description: The total nitrite released from the compounds in buffer and in cell supernatant were measured by Griess assay as reported by us previously. In brief, compounds (SA-2, SA-9, and SA-10) in buffer at different concentrations (1 mM, 500 µM, 250 µM 125 µM, 62.5 µM, 31.25 µM, and 15.625 µM) or supernatant collected from Human transformed trabecular meshwork (NTM-5) cells were added to a 96-well plate. 1% Sulphanilamide in 5% phosphoric acid and 0.1% N-1-napthylethylenediamine dihydrochloride (NED) were added to experimental samples sequentially at room temperature and away from light. SIN-1 was used as reference standard. UV Absorbances (Cytation 5) were measured at specific timepoints (0, 5 min, 10 min, 15 min, 30 min, 24 h, and 28 h) at 520 nm.
as §1

[6] = Hypochlorous acid (HOCl) radical scavenging assay (TNB) in buffer; format: biochemical
Description: This assay used the redox reaction between 5-thio-2-nitrobenzoic acid (TNB) and HOCl to form dithio-TNB. Using the method described previously, we assessed the % TNB remaining with or without treatment with SA compounds. Compounds SA-2, SA-9, and SA-10 were used in concentrations ranging from 0.1 µM, 1 µM, 10 µM, 100 µM, and 1000 µM. Lipoic acid (1 mM) was used as positive control.

NTM-5 cells [7] = experiment: In vitro cell viability (MTT) assay; settings: NTM-5 cells, 24 h, up to 1000 µM
Description: NTM-5 cells (6000 cells/well) were seeded in 96-well plates to confluency. […] The cell viability and proliferation were measured using MTT assays (CellTiter 96® AQueous One Solution Cell Proliferation Assay, Promega Madison, WI, USA) following manufacturer instruction. The experiments were repeated twice with four technical replicates.

Cl.[NH-]c1c[n+](C2CCSCC2)no1 [SA-9, (3-(tetrahydro-2H-thiopyran-4-yl)-1,2,3-oxadiazol-3-ium-5-yl)amide hydrochloride]
concentration at 1 h ([1]; choroid + sclera, read-out: concentration of SA-9 in choroid + sclera): 28900 ± 2500 ng/g
concentration at 1 h ([1]; lens, read-out: concentration of SA-9 in lens): 20500 ± 8300 ng/g
concentration at 1 h ([1]; optic nerve, read-out: concentration of SA-9 in ON): 1300 ± 90 ng/g
concentration at 1 h ([1]; retina, read-out: concentration of SA-9 in retina): 8250 ± 10200 ng/g
superoxide scavenging ability (ratio) (NTM-5 cells [2]; 10 µM for 18 h, NTM-5 cells insulted with TBHP, TBHP alone 2.5%): 20–25%
fold prevention of the decrease in superoxide scavenging ability vs TBHP alone (NTM-5 cells [2]; 10 µM for 18 h, TBHP-treated NTM-5 cells): ~ 10 fold
AUC0-3h of superoxide scavenging ratio (NTM-5 cells [2]; with TBHP 5.5 mM): 14120 ± 2023
AUC0-3h of superoxide scavenging ratio (NTM-5 cells [2]; without TBHP): 21155 ± 1099
NO release in buffer [3]: did not observe any NO release
EC50 (NTM-5 cells [4]): 1000 nM
NO released in NTM-5 cell supernatants (NTM-5 cells [5]; 28 h at 37 °C): dose dependently
start of NO release (NTM-5 cells [5]; buffer solution and TM cells): > 24 h
fold more potent than lipoic acid in HOCl scavenging ([6]; 0.1 µM vs. 1 mM lipoic acid, 30 min): 10,000 fold
duration of HOCl scavenging effect ([6]; 0.1 µM–1000 µM in buffer): > 1 h
cytotoxicity (NTM-5 cells [7]): no cytotoxicity
